Laboratory results from patent US6914045B2, “Glycopeptide antibiotics” (Wyeth Holdings Corporation, priority 2001, dated 2005).
Converted amounts (≈) assume the structure as drawn.

Columns and labels:
Escherichia coli = assay: in vitro antibacterial evaluation, MIC by broth dilution; format: cell-based; settings: broth dilution, 18 hours at 35° C.
Procedure, shortened: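 Broth dilution in Muller-Hinton II medium per NCCLS standard M7-A2, with an inoculum of 5×10^5 CFU/mL and antibiotic tested over 64-0.06 μg/mL. MIC was taken as the lowest concentration inhibiting visible growth.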

[1] = anatomic pathology (histopathology of heart and kidney) in mice; format: in vivo; settings: CD-1 mice, 20 mg/kg intravenously daily for 9 days, necropsy day 10, microscopic histopathology
Method: Samples of tissues from necropsied mice were formalin-fixed, paraffin-embedded, sectioned, stained with hematoxylin and eosin, and examined microscopically. Histopathologic findings were recorded. These findings were subjectively graded on a scale corresponding to slight, mild, moderate, marked and severe as compared to untreated controls.

Enterococcus sp. = assay: in vitro antibacterial evaluation, MIC by broth dilution; format: cell-based; settings: broth dilution, 18 hours at 35° C.
Procedure, shortened: (§1)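 Broth dilution per NCCLS standard M7-A2 in Muller-Hinton II […], with an inoculum of 5×10^5 CFU/mL and antibiotic spanning 64-0.06 μg/mL. The MIC is the lowest concentration that inhibits growth of the organism.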

Streptococcus sp. = assay: as above; format: cell-based; settings: broth dilution, 18 hours at 35° C.
Procedure, shortened: as §1

Staphylococcus sp. = assay: as above; format: cell-based; settings: broth dilution, 18 hours at 35° C.
Procedure, shortened: as §1

[2] = test system: Staphylococcus aureus-SMITH (GC 4543); assay: acute lethal infection in mice; format: in vivo; settings: acute lethal infection, female CD-1 mice, intraperitoneal challenge, intravenous 30 min. after infection, 7 day survival
Procedure, shortened: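 Protocol: bacteria suspended in trypticase soy broth or hog gastric mucin injected ip into female CD-1 mice at a level killing untreated controls in 24-48 hr; compound given iv in saline or 5% dextrose 30 min post-challenge; five mice per dose; ED50 derived from pooled 7 day survival of three runs.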

SMILES: Cc1ccc(Oc2cccc(-c3nc4cc(CC5NC(=O)C(C(C)c6ccccc6)NC(=O)CNC(=O)C(CO)NC(=O)C(C(O)C6CNC(=N)N6C6OC(CO)C(O)C(O)C6O)NC(=O)C(C(O)C6CNC(=N)N6)NC5=O)ccc4o3)c2)cc1 (stereo not drawn) [Example 28, Cyclo[3-[2-[3-(4-methylphenoxy)phenyl]-1,3-benzoxazol-5-yl]alanyl-3-(2-iminoimidazolidin-4-yl)seryl-3-(3-hexopyranosyl-2-iminoimidazolidin-4-yl)serylserylglycyl-β-methylphenyl-alanyl]]
- MIC Escherichia coli (ATCC 25922) (Escherichia coli; strain ATCC 25922): 64 µg/mL (≈ 54.3 µM)
- MIC Escherichia coli (GC 4559) (Escherichia coli; strain GC 4559): 64 µg/mL (≈ 54.3 µM)
- MIC Escherichia coli (GC 4560) (Escherichia coli; strain GC 4560): 8 µg/mL (≈ 6.79 µM)
- Anatomical Pathology (Day 10), Heart [1]: 0
- Anatomical Pathology (Day 10), Kidney [1]: 0
- MIC Enterococcus faecalis (ATCC 29212) (Enterococcus sp.; strain ATCC 29212): 8 µg/mL (≈ 6.79 µM)
- MIC Enterococcus faecalis (GC 2242) (Enterococcus sp.; strain GC 2242): 4 µg/mL (≈ 3.39 µM)
- MIC Enterococcus faecium (GC 2243) (Enterococcus sp.; strain GC 2243): 8 µg/mL (≈ 6.79 µM)
- MIC Enterococcus faecalis (GC 2691) (Enterococcus sp.; strain GC 2691): 8 µg/mL (≈ 6.79 µM)
- MIC Enterococcus faecalis (GC 3059) (Enterococcus sp.; strain GC 3059): 8 µg/mL (≈ 6.79 µM)
- MIC Enterococcus faecalis (GC 4552) (Enterococcus sp.; strain GC 4552): 8 µg/mL (≈ 6.79 µM)
- MIC Enterococcus faecalis (GC 4553) (Enterococcus sp.; strain GC 4553): 4 µg/mL (≈ 3.39 µM)
- MIC Enterococcus faecalis (GC 4554) (Enterococcus sp.; strain GC 4554): 8 µg/mL (≈ 6.79 µM)
- MIC Enterococcus faecium (GC 4556) (Enterococcus sp.; strain GC 4556): 8 µg/mL (≈ 6.79 µM)
- MIC Enterococcus faecium (GC 4557) (Enterococcus sp.; strain GC 4557): 4 µg/mL (≈ 3.39 µM)
- MIC Enterococcus avium (GC 4558) (Enterococcus sp.; strain GC 4558): 4 µg/mL (≈ 3.39 µM)
- MIC Enterococcus faecalis (GC 6189) (Enterococcus sp.; strain GC 6189): 8 µg/mL (≈ 6.79 µM)
- MIC Streptococcus pneumoniae (ATCC 6301) (Streptococcus sp.; strain ATCC 6301): 4 µg/mL (≈ 3.39 µM)
- MIC Streptococcus pneumoniae (GC 1894) (Streptococcus sp.; strain GC 1894): 4 µg/mL (≈ 3.39 µM)
- MIC Streptococcus pyogenes (GC 4563) (Streptococcus sp.; strain GC 4563): 1 µg/mL (≈ 0.849 µM)
- MIC Streptococcus agalactiae (GC 4564) (Streptococcus sp.; strain GC 4564): 4 µg/mL (≈ 3.39 µM)
- MIC Streptococcus pneumoniae (GC 4565) (Streptococcus sp.; strain GC 4565): 4 µg/mL (≈ 3.39 µM)
- MIC Staphylococcus aureus (ATCC 29213) (Staphylococcus sp.; strain ATCC 29213): 8 µg/mL (≈ 6.79 µM)
- MIC Staphylococcus aureus (GC 1131) (Staphylococcus sp.; strain GC 1131): 8 µg/mL (≈ 6.79 µM)
- MIC Staphylococcus aureus (GC 3051) (Staphylococcus sp.; strain GC 3051): 4 µg/mL (≈ 3.39 µM)
- MIC Staphylococcus aureus (GC 3053) (Staphylococcus sp.; strain GC 3053): 4 µg/mL (≈ 3.39 µM)
- MIC Staphylococcus aureus (GC 4541) (Staphylococcus sp.; strain GC 4541): 8 µg/mL (≈ 6.79 µM)
- MIC Staphylococcus aureus (GC 4542) (Staphylococcus sp.; strain GC 4542): 8 µg/mL (≈ 6.79 µM)
- MIC Staphylococcus aureus-SMITH (GC 4543) (Staphylococcus sp.; strain GC 4543): 4 µg/mL (≈ 3.39 µM)
- MIC Staphylococcus aureus (GC 4544) (Staphylococcus sp.; strain GC 4544): 8 µg/mL (≈ 6.79 µM)
- MIC Staphylococcus aureus (GC 4545) (Staphylococcus sp.; strain GC 4545): 4 µg/mL (≈ 3.39 µM)
- MIC Staphylococcus haemolyticus (GC 4546) (Staphylococcus sp.; strain GC 4546): 4 µg/mL (≈ 3.39 µM)
- MIC Coagulase Negative Staphylococcus (GC 4547) (Staphylococcus sp.; strain GC 4547): 8 µg/mL (≈ 6.79 µM)
- MIC Coagulase Negative Staphylococcus (GC 4548) (Staphylococcus sp.; strain GC 4548): 4 µg/mL (≈ 3.39 µM)
- MIC Coagulase Negative Staphylococcus (GC 4549) (Staphylococcus sp.; strain GC 4549): 4 µg/mL (≈ 3.39 µM)
- MIC Coagulase Negative Staphylococcus (GC 4551) (Staphylococcus sp.; strain GC 4551): 4 µg/mL (≈ 3.39 µM)
- MIC Coagulase Negative Staphylococcus (GC 6257) (Staphylococcus sp.; strain GC 6257): 2 µg/mL (≈ 1.7 µM)
- median effective dose (ED50), Staphylococcus aureus-SMITH (GC 4543) [2]: 8 mg/kg
